In PubChem BioAssay (NCI) one finds TGI and GI50 data, which are given here for 21 molecules.

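Protocol summary: plate cells (96-well), add compound at 5 concentrations, incubate 48 h, interpolate endpoints linearly. At the GI50, growth is halved. TGI: total growth inhibition.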

Among the test systems are DMS 273 small cell lung; HOP-18 NSCLC; KM20L2 colon; LXFL 529 NSCLC; M19-MEL melanoma; MDA-N; XF 498 CNS; DMS 114 small cell lung; RXF-631 renal.
What all share (experiment): NCI tumour cell line growth inhibition, 48 h

For `CN(C)CCC(=O)N1C/C(=C\c2ccc(Cl)c(Cl)c2)C(=O)/C(=C/c2ccc(Cl)c(Cl)c2)C1`, the TGI turned out to be 0.316 µM in the test with DMS 273 small cell lung; 2.3 µM in the test with HOP-18 NSCLC; 1.59 µM with KM20L2 colon; 0.637 µM in the test with LXFL 529 NSCLC; 1.13 µM in the test with M19-MEL melanoma; 0.84 µM in the test with MDA-N. Also, in the test with XF 498 CNS, the TGI was 2.32 µM.
Consider `C[C@]12CC=CC(=O)[C@@]1(C)CCC(=O)C2`, for which the TGI in the test on DMS 114 small cell lung, with DMS 273 small cell lung, with LXFL 529 NSCLC, in the test with M19-MEL melanoma, in the test on RXF-631 renal and in the test with XF 498 CNS was > 100 µM in each case.
As to `Cc1ccc(S(=O)(=O)N=Nc2c(O)[nH]c3cc(O)c(C(=O)O)cc23)cc1`, the TGI in the test with MDA-N was > 100 µM.
Regarding `O=C1N/C(=C\[N+](=O)[O-])c2ccccc21`, the TGI in the test on DMS 114 small cell lung, with DMS 273 small cell lung, in the test on HOP-18 NSCLC, with KM20L2 colon, in the test with LXFL 529 NSCLC and in the test with M19-MEL melanoma was > 100 µM each time. Further, the TGI in the test on RXF-631 renal was > 100 µM.
For the molecule `O=C(Nc1cccc(O)c1)C(=O)C1C(=O)NC(=S)NC1=O`, the TGI with DMS 114 small cell lung, with DMS 273 small cell lung, in the test on HOP-18 NSCLC, in the test with KM20L2 colon, with LXFL 529 NSCLC and in the test on M19-MEL melanoma was > 100 µM throughout. Besides, the TGI in the test with XF 498 CNS was > 100 µM.
Take `CC1(O)C(C)(O)C2(C)O[Te]3(OC12C)OC1(C)C(C)(O)C(C)(O)C1(C)O3` (centres undefined): the TGI was 54.4 µM with DMS 114 small cell lung; 67.3 µM with DMS 273 small cell lung; 31.4 µM in the test on LXFL 529 NSCLC; 70.8 µM in the test with M19-MEL melanoma; > 100 µM in the test with RXF-631 renal; > 100 µM in the test with XF 498 CNS.
As for `CC(C)(C)c1cc([N+](=O)[O-])cc([N+](=O)[O-])c1O`, in the test on MDA-N, the TGI was > 10 µM.
As to `NC(CCCC(N)P(=O)(O)O)P(=O)(O)O` (centres undefined), the TGI in the test on DMS 114 small cell lung, in the test with DMS 273 small cell lung, in the test with HOP-18 NSCLC, with LXFL 529 NSCLC, in the test with M19-MEL melanoma and in the test on RXF-631 renal was > 100 µM throughout.
`CC(=O)C1C(c2ccccc2)C2(C)OC(=O)C(C#N)C12C` (centres undefined): the TGI in the test on DMS 114 small cell lung, in the test with DMS 273 small cell lung, in the test on HOP-18 NSCLC, with KM20L2 colon, with LXFL 529 NSCLC and in the test on M19-MEL melanoma was > 100 µM in each case. Moreover, the TGI in the test on XF 498 CNS is > 100 µM.
As for `COc1ccc(C(C#N)NC23CC4CC(CC(C4)C2)C3)cc1` (centres undefined), the TGI in the test on MDA-N is > 100 µM.
Regarding `COc1cc(NCC(C#N)C#N)ccc1N=Nc1ccc(Cl)cc1`, the TGI turned out to be 48.2 µM in the test on DMS 114 small cell lung; 41.4 µM with DMS 273 small cell lung; 39.7 µM in the test with HOP-18 NSCLC; 29.3 µM in the test on KM20L2 colon; 51.7 µM in the test on LXFL 529 NSCLC; 55.9 µM with M19-MEL melanoma. Further, in the test on RXF-631 renal, the TGI was > 100 µM.
As for `O=C(Nc1ccc(C(F)(F)F)cc1[N+](=O)[O-])C(=O)C1NC(=S)NC1=O` (centres undefined), the TGI with DMS 114 small cell lung, in the test with DMS 273 small cell lung, with HOP-18 NSCLC, in the test on KM20L2 colon, with LXFL 529 NSCLC and in the test on M19-MEL melanoma was > 100 µM each time. For the same molecule, the TGI in the test with RXF-631 renal was > 100 µM.
Turning to `Nc1ncnc2c1ncn2C1C=C(CO)C(O)C1O` (centres undefined), the TGI in the test with DMS 114 small cell lung is 69.2 µM; with DMS 273 small cell lung, 28.3 µM; with HOP-18 NSCLC, > 100 µM; in the test on KM20L2 colon, > 100 µM; in the test with LXFL 529 NSCLC, > 100 µM; in the test with M19-MEL melanoma, > 100 µM. The TGI with MDA-N was > 100 µM; in the test with RXF-631 renal, 30 µM; in the test on XF 498 CNS it was > 100 µM.
For the molecule `O=S(=O)(C1=CC(S(=O)(=O)c2ccccc2)CN(Cc2ccccc2)C1c1cccc2ccccc12)c1ccccc1` (centres undefined), the TGI in the test on DMS 114 small cell lung, in the test with DMS 273 small cell lung, in the test with KM20L2 colon, in the test with M19-MEL melanoma and in the test with RXF-631 renal was > 69 µM in each case.
As to `CCN1CCCc2cc3c(C(F)(F)F)cc(=O)oc3cc21`, in the test with MDA-N, the TGI was > 100 µM.
As to `CCCC1(CC(=O)O)OCCc2c1[nH]c1ccccc21` (centres undefined), the TGI with DMS 114 small cell lung, in the test on DMS 273 small cell lung, in the test with HOP-18 NSCLC, with KM20L2 colon, in the test on LXFL 529 NSCLC and in the test on M19-MEL melanoma was > 100 µM in each case. Moreover, in the test on XF 498 CNS, the TGI was > 100 µM.
`O=C(O)CCCc1ccc2ccc3ccccc3c2c1`: the TGI in the test with MDA-N is > 100 µM.
Take `O=C(NC(=O)c1c(F)cccc1F)Nc1cccc(Oc2ncc(Cl)cn2)c1`: the TGI with DMS 114 small cell lung was > 100 µM; with DMS 273 small cell lung, > 100 µM; in the test with HOP-18 NSCLC it was > 100 µM; with LXFL 529 NSCLC, > 100 µM; in the test on M19-MEL melanoma, > 100 µM; with MDA-N, > 22.7 µM. Also, the TGI is > 100 µM in the test with RXF-631 renal and 69 µM in the test with XF 498 CNS.
For `CC(=O)Oc1c(C)c(-c2ccccc2)c(C)c(-c2ccccc2)c1C(=S)c1ccccc1`, the TGI in the test on HOP-18 NSCLC, in the test with KM20L2 colon, in the test with LXFL 529 NSCLC, in the test on M19-MEL melanoma and with RXF-631 renal was > 100 µM each time.
`CC(C)C(O)(C(C)C)C(C)C`: the TGI in the test with MDA-N is > 100 µM.
As to `CCOC(=O)[CH-]C(=O)C12CC3CC(CC(C3)C1)C2.CCOC(=O)[CH-]C(=O)C12CC3CC(CC(C3)C1)C2.CC[O-].CC[O-].[Ti+4]`, the GI50 in the test with DMS 114 small cell lung, in the test on DMS 273 small cell lung, with HOP-18 NSCLC, with KM20L2 colon, with LXFL 529 NSCLC and in the test with M19-MEL melanoma was > 100 µM each time. For the same molecule, the GI50 with RXF-631 renal is > 100 µM. In addition, the TGI in the test with DMS 114 small cell lung, in the test on DMS 273 small cell lung, with HOP-18 NSCLC, with KM20L2 colon, with LXFL 529 NSCLC and in the test on M19-MEL melanoma was > 100 µM throughout. The TGI in the test on RXF-631 renal was > 100 µM.
